Molecular target: T1, human liver GK (Homo sapiens, UniProt P35557)
T1 construct: GST (glutathione S-transferase) (N); made in house; host or cells: E. coli
T1 sequence (P35557 1-466 isoform P35557-2): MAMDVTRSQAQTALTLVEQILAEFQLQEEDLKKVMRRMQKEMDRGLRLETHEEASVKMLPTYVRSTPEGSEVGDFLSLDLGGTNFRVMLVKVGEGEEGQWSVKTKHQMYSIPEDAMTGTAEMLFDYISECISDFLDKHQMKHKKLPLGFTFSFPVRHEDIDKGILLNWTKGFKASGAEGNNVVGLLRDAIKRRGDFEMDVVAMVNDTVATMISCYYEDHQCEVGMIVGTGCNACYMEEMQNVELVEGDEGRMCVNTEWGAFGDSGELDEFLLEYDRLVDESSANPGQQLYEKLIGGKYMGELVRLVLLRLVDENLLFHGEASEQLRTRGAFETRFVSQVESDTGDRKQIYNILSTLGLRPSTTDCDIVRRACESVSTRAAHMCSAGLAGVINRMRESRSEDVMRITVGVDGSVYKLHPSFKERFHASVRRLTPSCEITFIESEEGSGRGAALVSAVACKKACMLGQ
Test: GK activation test
Assay type: biochemical
Details: test compound concentration needed to activate 50% of maximum activation ability; 4 mM 14C-labeled glucose, 2 mM ATP, room temperature, 20 minutes
Method in brief: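 GST-tagged human liver GK from E. coli (0.24 μg/well) with 4 mM 14C-glucose, 2 mM ATP in Hepes-KOH pH 7.1, KCl, MgCl2, DTT, 1% DMSO, 20 min room temperature. Labeled glucose 6-phosphate captured on anion resin, eluted and counted. EC50 = concentration giving half of maximal activation.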

EC50	Compound
10 to 500 nM	CCOc1ccc(/C(=C\[C@H]2CCC(=O)N2)c2ccc(C3CC3)c(=O)[nH]2)cc1Cl [Example 4-10, 6-{(E)-1-(3-Chloro-4-ethoxyphenyl)-2-[(2R)-5-oxopyrrolidin-2-yl]ethenyl}-3-cyclopropylpyridin-2(1H)-one]
3000 to 10000 nM	CC(C)(C)c1ccc(C(C[C@@H]2CCC(=O)N2)c2ccc(Cl)c(=O)[nH]2)cc1 (single isomer, unassigned) [Example 4-77]
500 to 3000 nM	COc1ccc(/C(=C\CC2CCCO2)c2ccc(C3CC3)c(=O)[nH]2)cc1Cl (stereo not shown) [Example 1-50, 6-[(1E)-1-(3-Chloro-4-methoxyphenyl)-3-(tetrahydrofuran-2-yl)prop-1-en-1-yl]-3-cyclopropylpyridin-2(1H)-one]
10 to 500 nM	O=c1[nH]c(/C(=C/[C@H]2CC[C@H](O)CC2)c2ccc(SC3CC3)cc2)ccc1C(F)(F)F [Example 1-90, 6-[(E)-1-[4-(Cyclopropylsulfanyl)phenyl]-2-(trans-4-hydroxycyclohexyl)ethenyl]-3-(trifluoromethyl)pyridin-2(1H)-one]
500 to 3000 nM	O=C1CC[C@H](CC(c2ccc(C(F)F)c(F)c2)c2ccc(C3CC3)c(=O)[nH]2)N1 (single isomer, unassigned) [Example 4-233]
10 to 500 nM	CC(C)c1ccc(/C(=C\[C@H]2CCC(=O)N2)c2ccc(C3CC3)c(=O)[nH]2)cc1Cl [Example 4-81, 6-{(E)-1-[3-Chloro-4-(propan-2-yl)phenyl]-2-[(2R)-5-oxopyrrolidin-2-yl]ethenyl}-3-cyclopropylpyridin-2(1H)-one]
500 to 3000 nM	CS(=O)(=O)c1ccc(/C(=C\C2CCCC2)c2ccc(C(F)(F)F)c(=O)[nH]2)cc1 [Example 1-28, 6-{(E)-2-Cyclopentyl-1-[4-(methylsulfonyl)phenyl]ethenyl}-3-(trifluoromethyl)pyridin-2(1H)-one]
500 to 3000 nM	O=C1CC[C@H](/C=C(\c2ccc(C(F)(F)F)nc2)c2ccc(C3CC3)c(=O)[nH]2)N1 [Example 4-108, 3-Cyclopropyl-6-{(E)-2-[(2R)-5-oxopyrrolidin-2-yl]-1-[6-(trifluoromethyl)pyridin-3-yl]ethenyl}pyridin-2(1H)-one]
3000 to 10000 nM	Cc1ccc(/C(=C\[C@H]2CCC(=O)N2)c2ccc(Cl)c(=O)[nH]2)c(C)c1 [Example 4-31, 3-Chloro-6-{(E)-1-(2,4-dimethylphenyl)-2-[(2R)-5-oxopyrrolidin-2-yl]ethenyl}pyridin-2(1H)-one]
500 to 3000 nM	Cc1cc(C(C[C@H]2CCC(=O)N2)c2ccc(C3CC3)c(=O)[nH]2)ccc1C(F)(F)F (single isomer, unassigned) [Example 4-330]
10 to 500 nM	CC(C)(C)c1ccc(/C(=C\[C@H]2CCN(C(=O)C3CC3)C2)c2ccc(Cl)c(=O)[nH]2)cc1 [Example 4-92, 6-{(E)-1-(4-tert-Butylphenyl)-2-[(3R)-1-(cyclopropylcarbonyl)pyrrolidin-3-yl]ethenyl}-3-chloropyridin-2(1H)-one]
500 to 3000 nM	O=C1CC[C@H](CC(c2ccc(OC(F)F)cc2)c2ccc(C3CC3)c(=O)[nH]2)N1 (single isomer, unassigned) [Example 4-229]
10 to 500 nM	O=C1CC[C@H](/C=C(\c2ccc(CC(F)(F)F)cc2)c2ccc(C3CC3)c(=O)[nH]2)N1 [Example 4-272, 3-Cyclopropyl-6-{(E)-2-[(2R)-5-oxopyrrolidin-2-yl]-1-[4-(2,2,2-trifluoroethyl)phenyl]ethenyl}pyridin-2(1H)-one]
3000 to 10000 nM	CC(C)(C)c1ccc(/C(=C\CO)c2ccc(Cl)c(=O)[nH]2)cc1 [Example 6-1, 6-[(1E)-1-(4-tert-Butylphenyl)-3-hydroxyprop-1-en-1-yl]-3-chloropyridin-2(1H)-one]
10 to 500 nM	CCc1ccc(/C(=C/[C@H]2CCC(=O)C2)c2ccc(S(=O)(=O)CCCN(CC)CC)c(Cl)c2)[nH]c1=O [Example 1-78, 6-{(E)-1-(3-Chloro-4-{[3-(diethylamino)propyl]sulfonyl}phenyl)-2-[(1S)-3-oxocyclopentyl]ethenyl}-3-ethylpyridin-2(1H)-one]
3000 to 10000 nM	CC(C)(C)c1ccc(C(C[C@H]2CCN(C(=O)C3CC3)C2)c2ccc(Cl)c(=O)[nH]2)cc1 (single isomer, unassigned) [Example 4-97]
3000 to 10000 nM	CC(C)(C)c1ccc(C(NC2CCCC2)c2ccc(Cl)c(=O)[nH]2)cc1 (stereo not shown) [Example 7-5, 6-[(4-tert-Butylphenyl)(cyclopentylamino)methyl]-3-chloropyridin-2(1H)-one]
10 to 500 nM	CSc1ccc(/C(=C\[C@H]2CCC(=O)C2)c2ccc(C)c(=O)[nH]2)cc1Cl [Example 1-67, 6-{(E)-1-[3-Chloro-4-(methylsulfanyl)phenyl]-2-[(1S)-3-oxocyclopentyl]ethenyl}-3-methylpyridin-2(1H)-one]
10 to 500 nM	CSc1ccc(/C(=C\[C@H]2CCC(=O)C2)c2ccc(C3CC3)c(=O)[nH]2)cc1 [Example 1-65, 3-Cyclopropyl-6-{(E)-1-[4-(methylsulfanyl)phenyl]-2-[(1S)-3-oxocyclopentyl]ethenyl}pyridin-2(1H)-one]
500 to 3000 nM	CCOc1ccc(C(C[C@H]2CCC(=O)N2)c2ccc(Cl)c(=O)[nH]2)cc1C(F)(F)F (single isomer, unassigned) [Example 4-237]
500 to 3000 nM	CSc1ccc([C@]2(c3ccc(C)c(=O)[nH]3)C[C@@H]2C2CCCC2)cc1 (relative stereo) [Example 3-3, trans-6-{2-Cyclopentyl-1-[4-(methylsulfanyl)phenyl]cyclopropyl}-3-methylpyridin-2(1H)-one]
500 to 3000 nM	O=C1CC[C@H](CC(c2ccc(O)c(Cl)c2)c2ccc(C3CC3)c(=O)[nH]2)N1 (single isomer, unassigned) [Example 4-250]
3000 to 10000 nM	Cc1ccc(/C(=N/OC2CCCC2)c2ccc(S(C)(=O)=O)cc2)[nH]c1=O [Example 5-3, (E)-6-{(Cyclopentyloxyimino)[4-(methylsulfonyl)phenyl]methyl}-3-methylpyridin-2(1H)-one]
10 to 500 nM	O=C1CC[C@H](C[C@H](c2ccc(Cl)c(Cl)c2)c2ccc(C3CC3)c(=O)[nH]2)N1 [Example 4-207, 3-Cyclopropyl-6-{(1R)-1-(3,4-dichlorophenyl)-2-[(2R)-5-oxopyrrolidin-2-yl]ethyl}pyridin-2(1H)-one]
3000 to 10000 nM	CC(C)(C)c1ccc(/C(=C\CCO)c2ccc(Cl)c(=O)[nH]2)cc1 [Example 6-24, 6-[(1E)-1-(4-tert-Butylphenyl)-4-hydroxybut-1-en-1-yl]-3-chloropyridin-2(1H)-one]
500 to 3000 nM	O=C1CC[C@H](CC(c2ccc(C(F)(F)F)c(F)c2)c2ccc(C3CC3)c(=O)[nH]2)N1 (single isomer, unassigned) [Example 4-219]
500 to 3000 nM	CCc1ccc(/C(=C\[C@H]2CCCN2C(C)=O)c2ccc(Cl)c(=O)[nH]2)cc1 [Example 4-47, 6-[(E)-2-[(2R)-1-Acetylpyrrolidin-2-yl]-1-(4-ethylphenyl)ethenyl]-3-chloropyridin-2(1H)-one]
500 to 3000 nM	O=c1[nH]c(/C(=C/C2CCCC2)c2ccc(CCCCO)cc2)ccc1C(F)(F)F [Example 1-38, 6-{(E)-2-Cyclopentyl-1-[4-(4-hydroxybutyl)phenyl]ethenyl}-3-(trifluoromethyl)pyridin-2(1H)-one]

From patent US8822503B2, “2-pyridone compounds” (Taisho Pharmaceutical Co., Ltd, priority 2009, dated 2014)
